Like-named read-outs stand apart in the source and are kept apart here.
What was measured:
ob/ob mice = assay: Chronic administration to ob/ob mice, fasting blood glucose; format: in vivo
[1] = Pharmacokinetic study in dogs; format: in vivo; details: versus alogliptin
[2] = Pharmacokinetic study in rats; format: in vivo; details: versus alogliptin
DPP IV [3] = molecular target: T1, DPP IV (Rattus norvegicus, UniProt P14740); assay: Inhibition of DPP IV activity in rat plasma; format: in vivo
T1 construct: from tissue; host or cells: rat plasma
T1 sequence (P14740 37-767 limits assumed): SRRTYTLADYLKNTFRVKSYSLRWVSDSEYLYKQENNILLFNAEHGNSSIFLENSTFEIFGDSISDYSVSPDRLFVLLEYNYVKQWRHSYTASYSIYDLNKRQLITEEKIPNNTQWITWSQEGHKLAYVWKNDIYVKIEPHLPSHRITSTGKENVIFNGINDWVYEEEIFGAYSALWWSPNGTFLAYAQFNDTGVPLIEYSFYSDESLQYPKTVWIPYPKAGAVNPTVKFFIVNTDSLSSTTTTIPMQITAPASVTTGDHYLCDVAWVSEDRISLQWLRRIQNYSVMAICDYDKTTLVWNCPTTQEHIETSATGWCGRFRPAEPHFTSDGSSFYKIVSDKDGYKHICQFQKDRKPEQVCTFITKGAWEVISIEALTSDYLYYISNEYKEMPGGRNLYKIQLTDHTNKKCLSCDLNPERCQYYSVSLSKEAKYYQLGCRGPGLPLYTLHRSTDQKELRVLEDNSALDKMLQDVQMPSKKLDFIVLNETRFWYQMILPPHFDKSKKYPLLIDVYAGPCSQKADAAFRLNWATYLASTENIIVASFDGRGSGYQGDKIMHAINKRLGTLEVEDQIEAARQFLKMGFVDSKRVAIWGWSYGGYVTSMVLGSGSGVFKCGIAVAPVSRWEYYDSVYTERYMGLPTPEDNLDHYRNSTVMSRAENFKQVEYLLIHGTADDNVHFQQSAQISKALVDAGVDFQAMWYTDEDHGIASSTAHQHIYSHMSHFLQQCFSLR

normal ICR mice = assay: Oral glucose tolerance in normal ICR mice; format: in vivo
ICR mice = assay: Acute toxicity test in ICR mice; format: in vivo; details: 300 mg/kg group
Rat = assay: Subacute toxicity test in Rat; format: in vivo; details: oral, 150 mg/kg group
DPP IV [4] = molecular target: DPP IV (Homo sapiens, UniProt P27487); assay: DPP IV inhibitory activity and selectivity in vitro; format: biochemical
Chain of DPP IV (Homo sapiens, UniProt P27487) (P27487 whole entry, species assumed): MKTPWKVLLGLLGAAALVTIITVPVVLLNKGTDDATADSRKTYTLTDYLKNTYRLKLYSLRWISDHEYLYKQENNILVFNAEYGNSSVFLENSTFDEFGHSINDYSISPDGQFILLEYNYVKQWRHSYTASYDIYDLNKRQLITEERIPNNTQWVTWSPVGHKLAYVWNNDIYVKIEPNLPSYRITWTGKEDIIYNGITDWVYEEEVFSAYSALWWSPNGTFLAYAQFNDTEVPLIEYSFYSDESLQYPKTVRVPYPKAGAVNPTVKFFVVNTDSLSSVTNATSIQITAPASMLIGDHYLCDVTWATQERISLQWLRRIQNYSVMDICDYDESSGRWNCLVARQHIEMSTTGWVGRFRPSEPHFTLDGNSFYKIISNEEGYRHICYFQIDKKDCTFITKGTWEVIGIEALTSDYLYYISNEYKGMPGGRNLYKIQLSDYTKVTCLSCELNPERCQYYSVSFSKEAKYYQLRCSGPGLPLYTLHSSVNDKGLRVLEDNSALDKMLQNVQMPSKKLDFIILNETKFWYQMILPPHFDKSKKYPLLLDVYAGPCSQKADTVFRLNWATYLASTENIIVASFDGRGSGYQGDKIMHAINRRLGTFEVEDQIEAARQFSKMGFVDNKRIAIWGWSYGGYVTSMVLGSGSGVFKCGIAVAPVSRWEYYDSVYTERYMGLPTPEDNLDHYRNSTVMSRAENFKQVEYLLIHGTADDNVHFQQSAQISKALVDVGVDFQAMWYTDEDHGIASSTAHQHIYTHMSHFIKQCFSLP

[5] = tested on: gene-deficient db/db mice; assay: Chronic administration to gene-deficient db/db mice, fasting blood glucose; format: in vivo
DPP IV [6] = molecular target: T2, DPP IV (Mus musculus, UniProt P28843); assay: Inhibition of DPP IV activity in normal mice plasma; format: in vivo
T2 construct: from tissue; host or cells: mouse plasma
T2 sequence (P28843 37-760 limits assumed): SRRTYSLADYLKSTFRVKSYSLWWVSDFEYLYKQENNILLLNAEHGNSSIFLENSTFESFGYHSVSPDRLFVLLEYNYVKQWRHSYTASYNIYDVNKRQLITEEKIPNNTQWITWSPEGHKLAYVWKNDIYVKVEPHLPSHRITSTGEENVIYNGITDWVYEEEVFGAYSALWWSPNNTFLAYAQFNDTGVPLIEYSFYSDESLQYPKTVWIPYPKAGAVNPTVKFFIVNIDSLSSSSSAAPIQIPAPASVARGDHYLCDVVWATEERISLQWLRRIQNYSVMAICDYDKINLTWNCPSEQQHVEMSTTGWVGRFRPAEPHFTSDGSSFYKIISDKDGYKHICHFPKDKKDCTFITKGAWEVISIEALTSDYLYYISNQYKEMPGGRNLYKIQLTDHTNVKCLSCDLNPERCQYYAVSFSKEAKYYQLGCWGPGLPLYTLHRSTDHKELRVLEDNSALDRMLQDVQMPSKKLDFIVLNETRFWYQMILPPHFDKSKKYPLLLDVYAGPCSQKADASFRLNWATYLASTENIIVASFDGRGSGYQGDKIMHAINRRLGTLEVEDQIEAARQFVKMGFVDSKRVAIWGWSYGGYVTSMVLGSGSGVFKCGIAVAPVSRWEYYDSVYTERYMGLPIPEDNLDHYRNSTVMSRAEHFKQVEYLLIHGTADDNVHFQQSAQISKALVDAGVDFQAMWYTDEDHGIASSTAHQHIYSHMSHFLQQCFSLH

[7] = Oral absorption and bioavailability compared with amorphous powder; format: in vivo; details: versus amorphous powder
[8] = Solubility compared with amorphous powder; format: physicochemical; details: versus amorphous powder
[9] = Stability of the crystal form; format: physicochemical
[10] = Hygroscopicity analysis (DVS); format: physicochemical
Protocol: Dynamic vapor absorption (DVS) test/water absorption test is conducted by rapidly measuring the increase and loss of the moisture in the sample caused by flow carrier gas with setted relative humidity (RH). The sample is placed on a digital microbalance with high sensitivity and high stability at a self-suspension state, and then by measuring the increase/decrease of the material mass so as to measure the adsorption/desorption of water vapor, thereby determining the hygroscopicity of the sample.
In the present invention, the test parameters for DVS are as follows: Instrument type: SMS DVS Intrinsic; Non-hydrate: 0 to 95%-0% RH; Temperature: 25° C.; Hydrate: 40 to 95%-0% RH; Temperature: 25° C.

[11] = Oral hypoglycemic activity compared with amorphous powder; format: in vivo; details: orally administered; versus amorphous powder
[12] = versus positive control alogliptin

For COC(=O)c1cc2nc(N3CCC[C@@H](N)C3)n(Cc3ccccc3C#N)c(=O)c2s1 [Formula I, (R)-methyl-2-(3-aminopiperidin-1-yl)-3-(2-cyanobenzyl)-4-carbonyl-3,4-dihydroth iophene[3,2-d] pyrimidine-6-carboxylic acid], the fasting blood glucose (ob/ob mice) was “effectively reduce”, the “fasting blood glucose reduction compared with alogliptin” value (ob/ob mice; [12]) was “superior” and the “AUC0-t compared with alogliptin” value [1] was “superior”. For the same compound, the “half-life compared with alogliptin” value [1] was “superior”, the “AUC0-t compared with alogliptin” value [2] was “superior” and the “half-life compared with alogliptin” value [2] was “superior”. The “DPP IV activity in plasma” value (DPP IV [3]) was “effectively inhibit”, the “DPP IV inhibitory activity compared with alogliptin” value (DPP IV [3]; versus alogliptin) was “superior” and the “effective dose for increasing oral glucose tolerance” value (normal ICR mice; dose-dependent) was 0.1 mg/kg. For the same compound, the “effect on oral glucose tolerance compared with alogliptin” value (normal ICR mice; versus alogliptin) was “superior”, the “death in acute toxicity test” value (ICR mice) was “no death” and the “toxicity in subacute toxicity test” value (Rat) was “no obvious toxicity”. For the same compound, the “type of DPP IV inhibition” value (DPP IV [4]) was “selective and reversible competitive”, the inhibitory activity (DPP IV [4]; in vitro) was “nanomolar level” and the “inhibitory activity and selectivity in vitro compared with sitagliptin and vildagliptin” value (DPP IV [4]; in vitro, versus listed drugs sitagliptin and vildagliptin) was “superior”. For the same compound, the fasting blood glucose [5] was “can reduce”, the “fasting blood glucose reduction compared with alogliptin” value [5, 12] was “comparable” and the “DPP IV activity in plasma” value (DPP IV [6]) was “effectively inhibit”. The “DPP IV inhibitory activity compared with alogliptin” value (DPP IV [6]; versus alogliptin) was “superior”.

For COC(=O)c1cc2nc(N3CCC[C@@H](N)C3)n(Cc3ccccc3C#N)c(=O)c2s1 [crystal form A, (R)-methyl-2-(3-aminopiperidin-1-yl)-3-(2-cyanobenzyl)-4-carbonyl-3,4-dihydrothiop hene[3,2-d] pyrimidine-6-carboxylic acid], the “oral absorption ability compared with amorphous powder” value [7] was “enhance oral absorption ability”, the “solubility compared with amorphous powder” value [8] was “improve solubility” and the “stability, in particular thermal stability” value ([9]; compared with the prior art) was “better stability”. For the same compound, the degradability ([9]; conventional conditions) was “not easily degradable”, the hygroscopicity [10] was “less than 1%” and the moisture content ([10]; 40% RH) was 0.26%. For the same compound, the moisture absorbed ([10]; 65% RH) was 0.42%, the moisture absorbed ([10]; 80% RH) was 0.57% and the “hygroscopicity (DVS)” value ([10]; FIG. 5, crystal of Example 1) was “slight hygroscopicity”. For the same compound, the “variation range of humidity” value ([10]; range of conventional storage humidity) was “smaller than 2.0%”, the hygroscopicity ([10]; relative humidity RH less than 50%) was “less than 0.3%” and the “hypoglycemic activity compared with amorphous powder” value [11] was “better”.
